{"source": "patent US20090017070A1", "about": "“In vitro model for hepatitis c virion production” (priority 2004, published 2009)", "key": {"HCV": {"system": "HCV", "conditions": "HCV-infected individuals treated with IFN; cited from earlier work"}, "[1]": {"system": "HCV (JFH-1, genotype 2a) in Huh7 cells", "assay": "Interferon treatment of HCV.JFH1-Rbz transfected Huh7 cells, viral production by HCV core Ag level in the medium", "format": "cell-based, Hepatitis C virus", "conditions": "treated with interferon one day after transfection, HCV core Ag level in medium (FIG. 13B)", "from_the_text": "FIG. 13. Production of infectious HCV in culture. (A). Full-length genomic cDNAs of HCV genotypes 1a (H77), 2b (J6), and 2a (JFH-1) were cloned into the HCV-ribozyme construct as described in FIG. 7. The constructs and the pTHr plasmid containing the CG1b HCV genome as described above were transfected into Huh7 cells and tested for virus production in the medium by using HCV core Ag ELISA. (B) HCV.JFH1-Rbz construct was transfected to Huh7 cells and treated with interferon one day after transfection. Viral production was monitored by measurement of HCV core Ag level in the medium. (C) Long-term culture of HCV.JFH1.Rbz transfected Huh7 cells were maintained with serial passage for the indicated duration. Culture medium was harvested at indicated times for HCV core Ag level and HCV RNA titer. […] Multiple foci of cells with positive intracellular staining were detected.\nHCV RNA, Protein Quantitation, and RACE. HCV RNA level was quantitated by using the TaqMan real-time PCR method as previously described (Thomson, M. et al. 2001 Gastroenterology 121:1226-33). […] The core protein was quantitated by using the HCV core ELISA kits, which were provided by S. Yagi (Advanced Life Technology, Saitama, Japan) and used as previously described (Tanaka, E. et al. 2000 Hepatology 32: 388-93). […]"}}, "data": [{"substance": "interferon-alfa", "values": [{"measurement": "Proportion of those treated showing a sustained response as evidenced by lack of circulating HCV RNA", "setting": "HCV", "result": "10-20%"}, {"measurement": "Sensitivity of viral replication to interferon-alfa treatment", "setting": "[1]", "result": "sensitive"}]}]}
